Experimental data as given in patent US20070015733A1, “Aryl Phosphate Derivatives of d4T having Activity Against Resistant HIV Strains” (Parker Hughes Institute, priority 1998, published 2007).
Where two headings read alike, the source gives them in different places.

Key:
HIV-2 (Strain: CBL-20) = assay: Inhibition of HIV-2 replication in PBMNC (RT activity); type: cell-based
Protocol: (P-AZT) and with AZT. The incubation and analysis methods used were as described above for Example 3.
Cellular Assays of Anti-HIV Activity and Cytotoxicity. […] Percent viral inhibition was calculated by comparing the RT activity values from the test substance-treated infected cells with RT values from untreated infected cells (i.e., virus controls).

[1] = tested on: NRTI-resistant recombinant HIV-1 isolates; assay: p24 assay, multi-NRTI-resistant recombinant HIV-1 clones; type: cell-based
[2] = tested on: AZT-sensitive HIV-1 (strain: HTLVIIIB); assay: Inhibition of HIV-1 HTLVIIIB in PBMC, RT activity assays (Example 14); type: cell-based; conditions: Human immunodeficiency virus 1, PBMC
Protocol: The compounds, as well as AZT, were tested for their ability to inhibit HIV replication in peripheral blood mononuclear cells using previously described procedures (Zarling et. al., 1990 Nature 347:92; Erice et. al., 1993 Antimicrob. Agents Chemother. 37:835; Uckun et. al., 1998 Antimicrob. Agents Chemother. 42:383). […] Percent viral inhibition was calculated by comparing the RT activity values from the test substance-treated infected cells with RT values from untreated infected cells (i.e., virus controls).

[3] = Stability in plasma, whole blood, gastric fluid and intestinal fluid; type: in vitro ADME
Protocol: Ala-d4T-MP is stable both in plasma and in whole blood. […] This hypothesis is consistent with the formation of a significant amount of d4T after incubation of d4T-5′-[p-bromophenyl methoxyalaninyl phosphate] with a liver homogenate.
Orally administered d4T-5′-[p-bromophenyl methoxyalaninyl phosphate] also yielded Ala-d4T-MP and d4T as the major metabolites. […] This metabolite can be absorbed in the intestine and then further metabolized to yield d4T in the blood. The tmax and t1/2 values for d4T in mice were longer when derived from orally administered d4T-5′-[p-bromophenyl methoxyalaninyl phosphate] (42.4 minutes and 99.0 minutes, respectively) than from orally administered d4T (5 minutes and 18 minutes, respectively). The tmax value is higher but the t1/2 value is lower for orally administered d4T-5′-[p-bromophenyl methoxyalaninyl phosphate] compared to intravenously administered d4T-5′-[p-bromophenyl methoxyalaninyl phosphate]. […] However, the bioavailability of d4T metabolized from d4T-5′-[p-bromophenyl methoxyalaninyl phosphate] (48%) was lower than that of orally administered d4T (98%).

[4] = tested on: peripheral blood mononuclear cells; assay: Microculture tetrazolium assay (MTA) cytotoxicity in PBMNC; conditions: viability of PBMC
human T-cell line MT2 = assay: Cytotoxicity in MT2 cells; type: cell-based; conditions: even at a 100 μM concentration
Text: Dozens of mutant strains have been characterized as resistant to NNRTI compounds, including L1001, K103N, V106A, E138K, Y181C and Y188H/L. In particular, the Y181 C and K103N mutants may be the most difficult to treat, because they are resistant to most of the NNRTIs compounds that have been examined. […] These clinical HIV-1 isolates also harbor additional RT gene mutations conferring NRTI-resistance and display a zidovudine-resistant phenotype (see Table 11 and Table 12).

[5] = cited from earlier work
[6] = twice daily hard gelatin capsules 25-100 mg/kg; cumulative dose levels as high as […]; cited from earlier work
[7] = Human immunodeficiency virus 1, read-out: IC50 (nM), p24, recombinant clone 1617-1 (151 complex)
[8] = Human immunodeficiency virus 1, read-out: IC50 (nM), p24, recombinant clone 4755-5
[9] = Human immunodeficiency virus 1, read-out: IC50 (nM), p24, recombinant clone 7295-1
[10] = Human immunodeficiency virus 1, read-out: IC50 (nM), p24, recombinant clone 7324-1
[11] = Human immunodeficiency virus 1, read-out: IC50 (nM), p24, recombinant clone 52252-1 in Table 18, 56252-1 in Tables 19 and 20 (K65R, 151 complex)
[12] = Human immunodeficiency virus 1, read-out: IC50 (nM), p24, recombinant clone printed 52534-1 in Table 18, 52534-2 in Tables 19 and 20 (69 insertion complex)
[13] = Human immunodeficiency virus 1, read-out: mean IC50 value, recombinant clones with 151 complex or 69 insertion complex (Group 3+Group 4)

Cc1cn([C@H]2C[C@H](N=[N+]=[N-])[C@@H](CO)O2)c(=O)[nH]c1=O [AZT, 3′-azido-3′-deoxythymidine]
IC50 (HIV-2 (Strain: CBL-20); Human immunodeficiency virus 2, Table 3, unit inferred, read-out: HIV-2 IC50 [RT]): 2400 nM | antiviral activity against HIV-2 (in words) (HIV-2 (Strain: CBL-20); PBMNC): not effective | IC50 [1, 7]: 320 nM | IC50 [1, 8]: 165 nM | IC50 [1, 9]: 137 nM | IC50 [1, 10]: > 1000 nM | IC50 [1, 11]: > 1000 nM | IC50 [1, 12]: > 1000 nM | IC50 [1, 13]: 773 ± 227 nM | IC50 ([2]; Table 15, preliminary, first human source of PBMC): 7 nM | IC50 ([2]; Table 16, AZT values in nM per footnote): 81.7 nM | IC50 ([2]; Table 17, later analysis from a larger sample pool): 4 ± 1 nM

COC(=O)C(C)NP(=O)(OC[C@@H]1C=C[C@H](n2cc(C)c(=O)[nH]c2=O)O1)Oc1ccc(Br)cc1 (stereo partly shown) [Compound 1c, d4T-5′-[p-bromo-phenylmethoxyalaninyl phosphate]]
stability in gastric fluid ([3]; gastric fluid): stable in gastric fluid | stability in intestinal fluid ([3]; intestinal fluid, forms Ala-d4T-MP): decomposes readily in intestinal fluid | stability in plasma and whole blood ([3]; plasma or whole blood): readily metabolizes | CC50 [4]: > 100000 nM | IC50 (HIV-2 (Strain: CBL-20); Human immunodeficiency virus 2, read-out: HIV-2 IC50 [RT]): 400 nM | IC50 ([1]; Human immunodeficiency virus 1, read-out: IC50 (nM), Mean ± SE, Group B (n = 6) recombinant clones): 27.6 ± 7.9 nM | IC50 ([1]; Human immunodeficiency virus 1, read-out: IC50 (nM), median, Group B (n = 6)): 22.5 nM | IC50 [1, 7]: 19.9 nM | IC50 [1, 8]: 6 nM | IC50 [1, 9]: 43 nM | IC50 [1, 10]: 13.7 nM | IC50 [1, 11]: 25 nM | IC50 [1, 12]: 57.9 nM | IC50 ([1]; Human immunodeficiency virus 1, read-out: IC50 (nM), range, Group B (n = 6)): 6 to 57.9 nM | IC50 [1, 13]: 34.3 ± 11.9 nM | cytotoxicity in MT2 cells (human T-cell line MT2): without any evidence of cytotoxicity | toxicity on daily administration ([5]; intraperitoneally or orally for up to 8 consecutive weeks, cumulative dose levels as high as 6.4 g/kg): not associated with any detectable toxicity | acute or subacute toxicity ([5]; single intraperitoneal or oral bolus dose levels as high as 500 mg/kg): without any detectable acute or subacute toxicity | tolerability of four-week treatment course [6]: very well tolerated
